Drug sensitivity score and normalised viability data for eight molecules are collected here from the supplement of paper PMC4862054.

“And” between values parts separate entries of the source, which are not always exact repeats. Equal values may be shown once.

Holding throughout (settings): incubation time: 72 h
One experiment concerns MDA-MB-231. Briefly: drug sensitivity score (DSS), CellTiter-Glo (DSS (AUC-based score)); higher = stronger drug effect (viability inhibition or cytotoxicity); extreme values may be limits of the assay. In outline:
(§1)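 Using 20 µl of cell suspension per well, breast cancer cell lines were seeded into 384-well plates pre-loaded with compound at 5 concentrations in 10-fold steps across a compound-specific 10,000-fold range. Incubation lasted 72 h, after which CellTox Green fluorescence at 485/520 nm and then CellTiter-Glo luminescence, following 10 min at room temperature, were recorded. Each plate was normalised to 0.1 % DMSO and a positive kill control before the drug sensitivity score was derived from the area under the fitted dose-response curve.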

Experiment [1] concerns BT-474. The experiment is described as above. In outline:
as §1

The test system of experiment [2] is DU-4475. Described as above. The procedure, abridged: as §1
The test system of experiment [3] is MDA-MB-436. Described as above. In outline:
as §1

In experiment [4] the test system is BT-549. The experiment is described as above. The procedure, abridged: as §1
For another experiment, the system named is MDA-MB-468. The experiment is described as above. In outline:
as §1

In experiment [5] the test system is CAL-85-1. The experiment is described as above. In outline: as §1
Another experiment concerns MCF-10A. Described as above. The procedure, abridged: as §1
For experiment [6], the system named is HCC1937. The experiment is described as above. The procedure, abridged: as §1
The next experiment concerns CAL-148. The description is as above. In outline:
as §1

A further experiment concerns CAL-120. The experiment is described as above. The procedure, abridged:
as §1

The subject of experiment [7] is HCC1599. The description is as above. In outline:
as §1

The test system of experiment [8] is Hs578T. The description is as above. The procedure, abridged:
as §1

The test system of experiment [9] is HCC1143. The description is as above. In outline: as §1
For experiment [10], the system named is MFM-223. Described as above. In outline: as §1
Experiment [11] concerns DU-4475. Briefly: normalised viability (% of control), CellTiter-Blue; higher = more viable cells (100 = DMSO, 0 = benzethonium chloride kill control). The method, then: (§2)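 DSRT, CellTiter-Blue viability, 72 h incubation. Signal is normalised to DMSO and benzethonium chloride controls. Value is the normalised response at dose 1.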
A general note: Alamar Blue is a resazurin reagent that responds to reducing activity.

Experiment [12] concerns MDA-MB-436. Described as above. The method, then:
as §2

In another experiment the test system is CAL-51. Described as above. The method, then: as §2
Experiment [13] concerns BT-549. The experiment is described as above. The method, then: as §2
For experiment [14], the system named is CAL-85-1. The description is as above. The method, then:
as §2

In experiment [15] the test system is HCC1937. The description is as above. The method, then:
as §2

For the next experiment, the system named is HDQ-P1. The experiment is described as above. The method, then:
as §2

Experiment [16] has as its system HCC1599. Described as above. The method, then: as §2
Experiment [17] deals with Hs578T. Described as above. The method, then:
as §2

In experiment [18] the test system is MFM-223. The description is as above. The method, then: as §2
In experiment [19] the test system is BT-474. The description is as above. The method, then: as §2
For experiment [20], the system named is HCC1143. The description is as above. The method, then: as §2

For `Cn1c(=O)n(-c2ccc(C(C)(C)C#N)cc2)c2c3cc(-c4cnc5ccccc5c4)ccc3ncc21` [Dactolisib], the drug sensitivity score turned out to be 11.7 in the experiment on MDA-MB-231; 9.24 in the experiment with BT-474 [1]; 11.4 in the experiment with DU-4475 [2]; 11.8 with MDA-MB-436 [3]; 18.6 with BT-549 [4]; 13.2 with MDA-MB-468. Also, the drug sensitivity score with CAL-85-1 [5] turned out to be 15.3; with MCF-10A it was 9.78; in the experiment with HCC1937 [6], 9.76; with CAL-148 it was 14.6; in the experiment on CAL-120 it was 17.9; in the experiment on HCC1599 [7], 2.8. In addition, the drug sensitivity score in the experiment on Hs578T [8] was determined as 14.9; in the experiment with HCC1143 [9], 12.7; in the experiment on MFM-223 [10], 13.4.

As for `CO[C@H]1C[C@@H]2CC[C@@H](C)[C@@](O)(O2)C(=O)C(=O)N2CCCC[C@H]2C(=O)O[C@H]([C@H](C)C[C@@H]2CC[C@@H](OCCO)[C@H](OC)C2)CC(=O)[C@H](C)/C=C(\C)[C@@H](O)[C@@H](OC)C(=O)[C@H](C)C[C@H](C)/C=C/C=C/C=C/1C` [Everolimus], the drug sensitivity score turned out to be 0 in the experiment on MDA-MB-231; 3.02 in the experiment on BT-474 [1]; 6.44 in the experiment on DU-4475 [2]; 5.1 in the experiment on MDA-MB-436 [3]; 13 in the experiment with BT-549 [4]; 16 with MDA-MB-468. Besides, the drug sensitivity score in the experiment on CAL-85-1 [5] worked out at 10.6; with MCF-10A, 0; in the experiment on HCC1937 [6] it was 8.95; in the experiment with CAL-148, 13.4; in the experiment with CAL-120 it was 8.8; in the experiment on HCC1599 [7], 0. The drug sensitivity score was determined as 9.44 with Hs578T [8], 8.31 in the experiment with HCC1143 [9] and 10.8 in the experiment with MFM-223 [10]. The normalised viability in the experiment on DU-4475 [11] (0.1 nM) was 106% and 105%; in the experiment on MDA-MB-436 [12] (0.1 nM), 104% and 86.3%; in the experiment with CAL-51 (0.1 nM), 99.3% and 104%; with BT-549 [13] (0.1 nM) it was 81% and 93%; in the experiment on CAL-85-1 [14] (0.1 nM), 89.2% and 76.6%; in the experiment with HCC1937 [15] (0.1 nM) it was 58% and 70.5%. In addition, the normalised viability was 87.3% and 89.8% in the experiment on HDQ-P1 (0.1 nM); 101% in the experiment with HCC1599 [16] (0.1 nM); 58.9% and 73.8% with Hs578T [17] (0.1 nM); 85% and 84% in the experiment with MFM-223 [18] (0.1 nM).

Turning to `CCCCCCCCc1ccc(CCC(N)(CO)CO)cc1` [Fingolimod], the drug sensitivity score stood at 6.21 in the experiment on MDA-MB-231; 6.1 in the experiment on BT-474 [1]; 0 in the experiment with DU-4475 [2]; 3.56 in the experiment with MDA-MB-436 [3]; 3.92 in the experiment on BT-549 [4]; 5.78 in the experiment with MDA-MB-468. Besides, the drug sensitivity score was found to be 5.32 with CAL-85-1 [5]; 5.32 in the experiment on MCF-10A; 4.54 with HCC1937 [6]; 1.1 in the experiment on CAL-148; 0 in the experiment on CAL-120; 0.954 with HCC1599 [7]. Further, the drug sensitivity score with Hs578T [8] was found to be 0; in the experiment on HCC1143 [9], 0; in the experiment on MFM-223 [10] it was 1.45. In addition, the normalised viability with BT-474 [19] (1 nM) was found to be 97.7%; in the experiment with DU-4475 [11] (1 nM), 122%; in the experiment on MDA-MB-436 [12] (1 nM) it was 113%; in the experiment with CAL-51 (1 nM), 117%; with BT-549 [13] (1 nM), 106%; in the experiment with CAL-85-1 [14] (1 nM) it was 85.8%. The normalised viability came to 96.5% in the experiment on HCC1937 [15] (1 nM); 130% with HDQ-P1 (1 nM); 105% with HCC1599 [16] (1 nM); 97.6% with Hs578T [17] (1 nM); 92.5% in the experiment with HCC1143 [20] (1 nM); 94% with MFM-223 [18] (1 nM).

On to `Cc1ccc(NC(=O)c2ccc(CN3CCN(C)CC3)cc2)cc1Nc1nccc(-c2cccnc2)n1` [Imatinib], for which the drug sensitivity score in the experiment with MDA-MB-231, in the experiment with BT-474 [1], in the experiment with DU-4475 [2], in the experiment on MDA-MB-436 [3], in the experiment on BT-549 [4] and in the experiment with MDA-MB-468 was 0 throughout. The drug sensitivity score with CAL-85-1 [5], with MCF-10A, in the experiment with HCC1937 [6], in the experiment on CAL-148, in the experiment on CAL-120 and in the experiment with HCC1599 [7] was 0 each time. Further, the drug sensitivity score with Hs578T [8], with HCC1143 [9] and with MFM-223 [10] was 0 in each case. Besides, the normalised viability with DU-4475 [11] (1 nM) was 99% and 111%; in the experiment on MDA-MB-436 [12] (1 nM), 90.1% and 106%; in the experiment on CAL-51 (1 nM) it was 99.8% and 100%; in the experiment on BT-549 [13] (1 nM), 104% and 116%; in the experiment with CAL-85-1 [14] (1 nM), 87.5% and 85.1%; with HCC1937 [15] (1 nM), 81.9% and 101%. For the same molecule, the normalised viability is 109% and 104% in the experiment on HCC1599 [16] (1 nM); 99.3% and 102% in the experiment on Hs578T [17] (1 nM); 88.9% and 93% with HCC1143 [20] (1 nM); 93.1% and 97.1% in the experiment on MFM-223 [18] (1 nM).

Regarding `Nc1nc(OCc2cc(Br)cs2)c2[nH]cnc2n1` [Lomeguatrib], the drug sensitivity score in the experiment on MDA-MB-231, in the experiment with BT-474 [1], in the experiment with DU-4475 [2], in the experiment with MDA-MB-436 [3], in the experiment on BT-549 [4] and with MDA-MB-468 was 0 each time. For the same molecule, the drug sensitivity score in the experiment with CAL-85-1 [5], with MCF-10A, with HCC1937 [6], with CAL-148, in the experiment on CAL-120 and in the experiment with HCC1599 [7] was 0 each time. Also, the drug sensitivity score with Hs578T [8], in the experiment on HCC1143 [9] and in the experiment with MFM-223 [10] was 0 in each case.

For `Cn1c(=O)n(-c2ccc(C(C)(C)C#N)cc2)c2c3cc(-c4cnc5ccccc5c4)ccc3ncc21` [NVP-BEZ235], the normalised viability in the experiment with BT-474 [19] (0.1 nM) amounted to 105%; in the experiment with DU-4475 [11] (0.1 nM), 129%; in the experiment with MDA-MB-436 [12] (0.1 nM), 119%; with CAL-51 (0.1 nM), 102%; in the experiment on BT-549 [13] (0.1 nM) it was 112%; in the experiment on CAL-85-1 [14] (0.1 nM) it was 96.9%. Moreover, the normalised viability came out at 95.9% with HCC1937 [15] (0.1 nM); 113% in the experiment on HDQ-P1 (0.1 nM); 125% in the experiment on HCC1599 [16] (0.1 nM); 105% in the experiment with Hs578T [17] (0.1 nM); 98.9% with HCC1143 [20] (0.1 nM); 99.3% in the experiment with MFM-223 [18] (0.1 nM).

Take `COc1ccccc1S(=O)(=O)Nc1ccc2c(c1)CN(C)C(=O)N2` [PFI-1]: the drug sensitivity score worked out at 1.83 with MDA-MB-231; 0 with BT-474 [1]; 0.973 with DU-4475 [2]; 1.33 with MDA-MB-436 [3]; 5.52 in the experiment on BT-549 [4]; 0 with MDA-MB-468. The drug sensitivity score with CAL-85-1 [5] was determined as 3.01; in the experiment with MCF-10A, 1.98; in the experiment on HCC1937 [6], 0; with CAL-148, 0; in the experiment with CAL-120, 2.01; in the experiment with HCC1599 [7], 0. Moreover, the drug sensitivity score in the experiment with Hs578T [8] is 4.98; in the experiment on HCC1143 [9], 0; in the experiment with MFM-223 [10], 1.13.

Consider `NS(=O)(=O)OC[C@@H]1C[C@@H](n2ccc3c(N[C@H]4CCc5ccccc54)ncnc32)C[C@@H]1O` [Pevonedistat], for which the drug sensitivity score turned out to be 6.52 in the experiment on MDA-MB-231; 7.25 in the experiment with BT-474 [1]; 22.5 in the experiment on DU-4475 [2]; 14.2 in the experiment on MDA-MB-436 [3]; 15.3 in the experiment with BT-549 [4]; 17.8 with MDA-MB-468. Also, the drug sensitivity score in the experiment on CAL-85-1 [5] worked out at 11.9; in the experiment with MCF-10A, 0; in the experiment with HCC1937 [6], 2.78; in the experiment with CAL-148 it was 0; in the experiment on CAL-120 it was 7.98; with HCC1599 [7], 14. Further, the results for the drug sensitivity score with Hs578T [8], with HCC1143 [9] and in the experiment on MFM-223 [10] were 5.18, 8.48 and 9.97, respectively.
